Structures can show the parent of a compound that is named as a salt. Where two headings read alike, the source gives them in different places.
Key:
Assay in all cases: AK assay 384-well format, Prestwick library screening
[1] = system: E. faecium; assay type: cell-based, Enterococcus faecium; conditions: 50 μM final drug concentration; for fold induction at 50 µM: Enterococcus faecium, 3 h
[2] = system: E. cloacae; assay type: cell-based, Enterobacter cloacae; conditions: 50 μM final drug concentration; for fold induction at 50 µM: Enterobacter cloacae, 3 h
[3] = system: P. aeruginosa; assay type: cell-based, Pseudomonas aeruginosa; conditions: 50 μM final drug concentration; for fold induction at 50 µM: Pseudomonas aeruginosa, 3 h
[4] = system: A. baumannii strain 98-37-09; assay type: cell-based, Acinetobacter baumannii; conditions: 50 μM final drug concentration; for fold induction at 50 µM: Acinetobacter baumannii, 983709, 3 h
[5] = system: K. pneumoniae; assay type: cell-based, Klebsiella pneumoniae; conditions: 50 μM final drug concentration; for fold induction at 50 µM: Klebsiella pneumoniae, 3 h
[6] = system: S. aureus strain USA300-0114; assay type: cell-based, Staphylococcus aureus; conditions: 50 μM final drug concentration; for fold induction at 50 µM: Staphylococcus aureus, USA300, 3 h
[7] = system: E. coli; assay type: cell-based, Escherichia coli; conditions: 50 μM final drug concentration; for fold induction at 50 µM: Escherichia coli, 3 h
[8] = planktonic, cutoff for positive-scoring molecules 3-fold increase
[9] = cutoff for positive-scoring molecules 3-fold increase, read-out: AK-based Prestwick Library Screening Results, E. faecium (fold increase in extracellular AK activity)
[10] = cutoff for positive-scoring molecules 3-fold increase, read-out: AK-based Prestwick Library Screening Results, E. cloacae (fold increase in extracellular AK activity)
[11] = cutoff for positive-scoring molecules 3-fold increase, read-out: AK-based Prestwick Library Screening Results, P. aeruginosa (fold increase in extracellular AK activity)
[12] = cutoff for positive-scoring molecules 3-fold increase, read-out: AK-based Prestwick Library Screening Results, A. baumannii (fold increase in extracellular AK activity)
[13] = cutoff for positive-scoring molecules 3-fold increase, read-out: AK-based Prestwick Library Screening Results, K. pneumoniae (fold increase in extracellular AK activity)
[14] = cutoff for positive-scoring molecules 3-fold increase, read-out: AK-based Prestwick Library Screening Results, S. aureus (fold increase in extracellular AK activity)
[15] = cutoff for positive-scoring molecules 3-fold increase, read-out: AK-based Prestwick Library Screening Results, E. coli (fold increase in extracellular AK activity)
[16] = planktonic, cutoff for positive 3-fold increase, read-out: AK-based Prestwick Library Screening Results, E. faecium (fold increase in extracellular AK activity)
[17] = planktonic, cutoff for positive 3-fold increase, read-out: AK-based Prestwick Library Screening Results, E. cloacae (fold increase in extracellular AK activity)
[18] = planktonic, cutoff for positive 3-fold increase, read-out: AK-based Prestwick Library Screening Results, P. aeruginosa (fold increase in extracellular AK activity)
[19] = planktonic, cutoff for positive 3-fold increase, read-out: AK-based Prestwick Library Screening Results, A. baumannii (fold increase in extracellular AK activity)
[20] = planktonic, cutoff for positive 3-fold increase, read-out: AK-based Prestwick Library Screening Results, K. pneumoniae (fold increase in extracellular AK activity)
[21] = planktonic, cutoff for positive 3-fold increase, read-out: AK-based Prestwick Library Screening Results, S. aureus (fold increase in extracellular AK activity)
[22] = planktonic, cutoff for positive 3-fold increase, read-out: AK-based Prestwick Library Screening Results, E. coli (fold increase in extracellular AK activity)
[23] = 384-well format, cutoff for positive-scoring molecules 3-fold increase, read-out: AK-based Prestwick Library Screening Results, E. faecium (increase in extracellular AK activity)
[24] = 384-well format, cutoff for positive-scoring molecules 3-fold increase, read-out: AK-based Prestwick Library Screening Results, E. cloacae (increase in extracellular AK activity)
[25] = 384-well format, cutoff for positive-scoring molecules 3-fold increase, read-out: AK-based Prestwick Library Screening Results, P. aeruginosa (increase in extracellular AK activity)
[26] = 384-well format, cutoff for positive-scoring molecules 3-fold increase, read-out: AK-based Prestwick Library Screening Results, A. baumannii (increase in extracellular AK activity)
[27] = 384-well format, cutoff for positive-scoring molecules 3-fold increase, read-out: AK-based Prestwick Library Screening Results, K. pneumoniae (increase in extracellular AK activity)
[28] = 384-well format, cutoff for positive-scoring molecules 3-fold increase, read-out: AK-based Prestwick Library Screening Results, S. aureus (increase in extracellular AK activity)
[29] = 384-well format, cutoff for positive-scoring molecules 3-fold increase, read-out: AK-based Prestwick Library Screening Results, E. coli (increase in extracellular AK activity)
[30] = […], read-out: AK-based Prestwick Library Screening Results, E. coli (fold increase in extracellular AK activity)

## O.O=C1C(O)=C(O)C(=O)C(O)=C1O [Tetrahydroxy-1,4-quinone monohydrate]
[1]; [8]
  AK-based Prestwick Library Screening Results, E. faecium (fold increase in extracellular AK activity): 0.9
[2]; [8]
  AK-based Prestwick Library Screening Results, E. cloacae (fold increase in extracellular AK activity): 1.3
[3]; [8]
  AK-based Prestwick Library Screening Results, P. aeruginosa (fold increase in extracellular AK activity): 0.9
[4]; [8]
  AK-based Prestwick Library Screening Results, A. baumannii (fold increase in extracellular AK activity): 1.1
[5]; [8]
  AK-based Prestwick Library Screening Results, K. pneumoniae (fold increase in extracellular AK activity): 0.8
[6]; [8]
  AK-based Prestwick Library Screening Results, S. aureus (fold increase in extracellular AK activity): 0.8
[7]; [8]
  AK-based Prestwick Library Screening Results, E. coli (fold increase in extracellular AK activity): 0.9

## c1ccc2c(c1)CCCC2C1=NCCN1 (centres unmarked) [Tetrahydrozoline hydrochloride]
[1]; [9]
  fold induction at 50 µM: 1
[2]; [10]
  fold induction at 50 µM: 1.4
[3]; [11]
  fold induction at 50 µM: 1
[4]; [12]
  fold induction at 50 µM: 1
[5]; [13]
  fold induction at 50 µM: 0.9
[6]; [14]
  fold induction at 50 µM: 1.1
[7]; [15]
  fold induction at 50 µM: 1.4

## c1ccc(C2CN3CCSC3=N2)cc1 (centres unmarked) [Tetramisole hydrochloride]
[1]; [16]
  fold induction at 50 µM: 1
[2]; [17]
  fold induction at 50 µM: 1.4
[3]; [18]
  fold induction at 50 µM: 1.2
[4]; [19]
  fold induction at 50 µM: 1.4
[5]; [20]
  fold induction at 50 µM: 1.1
[6]; [21]
  fold induction at 50 µM: 1.1
[7]; [22]
  fold induction at 50 µM: 1.3

## COc1ccc2cc1Oc1ccc(cc1)C[C@H]1c3cc(c(OC)cc3CCN1C)Oc1c(OC)c(OC)cc3c1[C@H](C2)N(C)CC3 [Tetrandrine]
[1]; planktonic, cutoff for positive-scoring molecules 3-fold increase, read-out: AK-based Prestwick Library Screening Results, E. faecium (fold increase in extracellular AK activity)
  fold induction at 50 µM: 1
[2]; planktonic, cutoff for positive-scoring molecules 3-fold increase, read-out: AK-based Prestwick Library Screening Results, E. cloacae (fold increase in extracellular AK activity)
  fold induction at 50 µM: 1.1
[3]; planktonic, cutoff for positive-scoring molecules 3-fold increase, read-out: AK-based Prestwick Library Screening Results, P. aeruginosa (fold increase in extracellular AK activity)
  fold induction at 50 µM: 0.9
[4]; planktonic, cutoff for positive-scoring molecules 3-fold increase, read-out: AK-based Prestwick Library Screening Results, A. baumannii (fold increase in extracellular AK activity)
  fold induction at 50 µM: 0.9
[5]; planktonic, cutoff for positive-scoring molecules 3-fold increase, read-out: AK-based Prestwick Library Screening Results, K. pneumoniae (fold increase in extracellular AK activity)
  fold induction at 50 µM: 0.9
[6]; planktonic, cutoff for positive-scoring molecules 3-fold increase, read-out: AK-based Prestwick Library Screening Results, S. aureus (fold increase in extracellular AK activity)
  fold induction at 50 µM: 0.9
[7]; planktonic, cutoff for positive-scoring molecules 3-fold increase, read-out: AK-based Prestwick Library Screening Results, E. coli (fold increase in extracellular AK activity)
  fold induction at 50 µM: 0.9

## O=C1CCC(N2C(=O)c3ccccc3C2=O)C(=O)N1 (centres unmarked) [Thalidomide]
[1]; [23]
  fold induction at 50 µM: 1
[2]; [24]
  fold induction at 50 µM: 1.1
[3]; [25]
  fold induction at 50 µM: 0.9
[4]; [26]
  fold induction at 50 µM: 0.9
[5]; [27]
  fold induction at 50 µM: 0.8
[6]; [28]
  fold induction at 50 µM: 1
[7]; [29]
  fold induction at 50 µM: 1

## Cn1cnc2c1c(=O)[nH]c(=O)n2C [Theobromine]
[1]; [9]
  fold induction at 50 µM: 1.1
[2]; [10]
  fold induction at 50 µM: 1.4
[3]; [11]
  fold induction at 50 µM: 1.2
[4]; [12]
  fold induction at 50 µM: 1.1
[5]; [13]
  fold induction at 50 µM: 1.2
[6]; [14]
  fold induction at 50 µM: 1.3
[7]; [15]
  fold induction at 50 µM: 1.2

## Cn1c(=O)c2[nH]cnc2n(C)c1=O [Theophylline monohydrate]
[1]; […], read-out: AK-based Prestwick Library Screening Results, E. faecium (fold increase in extracellular AK activity)
  fold induction at 50 µM: 1
[2]; […], read-out: AK-based Prestwick Library Screening Results, E. cloacae (fold increase in extracellular AK activity)
  fold induction at 50 µM: 1.3
[3]; […], read-out: AK-based Prestwick Library Screening Results, P. aeruginosa (fold increase in extracellular AK activity)
  fold induction at 50 µM: 1.2
[4]; […], read-out: AK-based Prestwick Library Screening Results, A. baumannii (fold increase in extracellular AK activity)
  fold induction at 50 µM: 1.2
[5]; […], read-out: AK-based Prestwick Library Screening Results, K. pneumoniae (fold increase in extracellular AK activity)
  fold induction at 50 µM: 1.1
[6]; […], read-out: AK-based Prestwick Library Screening Results, S. aureus (fold increase in extracellular AK activity)
  fold induction at 50 µM: 1.3
[7]; [30]
  fold induction at 50 µM: 1.2

## Cc1ncc(C[n+]2csc(CCO)c2C)c(N)n1 [Thiamine hydrochloride]
[1]; [16]
  fold induction at 50 µM: 1
[2]; [17]
  fold induction at 50 µM: 1.3
[3]; [18]
  fold induction at 50 µM: 1.3
[4]; [19]
  fold induction at 50 µM: 1.3
[5]; [20]
  fold induction at 50 µM: 1.4
[6]; [21]
  fold induction at 50 µM: 1.1
[7]; [22]
  fold induction at 50 µM: 1.4

## CS(=O)(=O)c1ccc([C@@H](O)[C@@H](CO)NC(=O)C(Cl)Cl)cc1 [Thiamphenicol]
[1]; [23]
  fold induction at 50 µM: 0.9
[2]; [24]
  fold induction at 50 µM: 1.4
[3]; [25]
  fold induction at 50 µM: 0.8
[4]; [26]
  fold induction at 50 µM: 0.9
[5]; [27]
  fold induction at 50 µM: 0.4
[6]; [28]
  fold induction at 50 µM: 8.7
[7]; [29]
  fold induction at 50 µM: 0.9

## COc1c(O[C@@H]2O[C@H](CO)[C@@H](O)[C@H](O)[C@H]2O)cc2c(c1OC)-c1ccc(SC)c(=O)cc1[C@@H](NC(C)=O)CC2 [Thiocolchicoside]
[1]; planktonic, […], read-out: AK-based Prestwick Library Screening Results, E. faecium (fold increase in extracellular AK activity)
  fold induction at 50 µM: 1.1
[2]; planktonic, […], read-out: AK-based Prestwick Library Screening Results, E. cloacae (fold increase in extracellular AK activity)
  fold induction at 50 µM: 1.7
[3]; planktonic, […], read-out: AK-based Prestwick Library Screening Results, P. aeruginosa (fold increase in extracellular AK activity)
  fold induction at 50 µM: 1
[4]; planktonic, […], read-out: AK-based Prestwick Library Screening Results, A. baumannii (fold increase in extracellular AK activity)
  fold induction at 50 µM: 0.9
[5]; planktonic, […], read-out: AK-based Prestwick Library Screening Results, K. pneumoniae (fold increase in extracellular AK activity)
  fold induction at 50 µM: 0.8
[6]; planktonic, […], read-out: AK-based Prestwick Library Screening Results, S. aureus (fold increase in extracellular AK activity)
  fold induction at 50 µM: 1.2
[7]; planktonic, […], read-out: AK-based Prestwick Library Screening Results, E. coli (fold increase in extracellular AK activity)
  fold induction at 50 µM: 1

## S=C(NC1CCCCC1)N1CCC(c2cnc[nH]2)CC1 [Thioperamide maleate]
[1]; [9]
  fold induction at 50 µM: 1
[2]; [10]
  fold induction at 50 µM: 1.6
[3]; [11]
  fold induction at 50 µM: 1.3
[4]; [12]
  fold induction at 50 µM: 1
[5]; [13]
  fold induction at 50 µM: 1
[6]; [14]
  fold induction at 50 µM: 1.1
[7]; [30]
  fold induction at 50 µM: 1.2
